Measurements: patent US7495027B2, “3-aryl-4-hydroxyfuranone compounds and the human and animal health use thereof” (Wyeth, priority 2003, dated 2009)
In brackets after ≈: the same amount, converted by molar mass. Like-named read-outs stand apart in the source and are kept apart here.

Tests used:
[1] = target: T1, S. aureus Uridine-diphosphate-N-acetylmuramoyl-L-alanine: D-glutamate liease, MurD (Staphylococcus aureus, UniProt Q2FZ92); test: biochemical; conditions: (S) S. aureus enzyme
T1 sequence (Q2FZ92 1-449): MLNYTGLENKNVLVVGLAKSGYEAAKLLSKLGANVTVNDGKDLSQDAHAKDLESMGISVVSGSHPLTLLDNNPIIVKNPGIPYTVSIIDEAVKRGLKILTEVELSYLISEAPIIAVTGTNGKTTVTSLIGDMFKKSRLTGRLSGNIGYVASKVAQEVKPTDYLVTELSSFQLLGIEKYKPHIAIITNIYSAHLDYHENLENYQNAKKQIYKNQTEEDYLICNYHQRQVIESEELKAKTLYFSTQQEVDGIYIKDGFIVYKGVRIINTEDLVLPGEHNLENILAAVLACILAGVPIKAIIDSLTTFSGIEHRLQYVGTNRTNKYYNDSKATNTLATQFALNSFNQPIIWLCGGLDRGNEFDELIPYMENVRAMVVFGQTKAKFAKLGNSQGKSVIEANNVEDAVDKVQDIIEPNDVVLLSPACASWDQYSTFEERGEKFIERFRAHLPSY
In short: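 Test solutions, 10 mg/mL stocks in DMSO, were brought to 100 μg/mL with 50 mM Tris/HCl (pH 8.5). Their inhibition of MurD, the enzyme of the fourth cell wall biosynthesis step, was measured.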

Streptococci = test: Minimum inhibitory concentration, microdilution broth method, streptococci; format: cell-based; conditions: Mueller-Hinton broth with 5% horse blood, 18-22 hours at 35° C.; for MIC: S. pneumo GC 1894
In short: (§1)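 Organisms, including methicillin-, penicillin- and/or vancomycin-resistant clinical isolates, tested by NCCLS M7-A5 microdilution. Medium: Mueller-Hinton broth for staphylococci and enterococci, supplemented with 5% lysed horse blood for streptococci.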

[2] = target: T2, S. aureus Uridine-diphosphate-N-acetvimuramoyl: L-alanine lipase, MurC (Staphylococcus aureus, UniProt Q2FXJ0); test: biochemical; conditions: (S) S. aureus enzyme; for IC50: read-out: MurC IC50 (converted)
T2 sequence (Q2FXJ0 1-437): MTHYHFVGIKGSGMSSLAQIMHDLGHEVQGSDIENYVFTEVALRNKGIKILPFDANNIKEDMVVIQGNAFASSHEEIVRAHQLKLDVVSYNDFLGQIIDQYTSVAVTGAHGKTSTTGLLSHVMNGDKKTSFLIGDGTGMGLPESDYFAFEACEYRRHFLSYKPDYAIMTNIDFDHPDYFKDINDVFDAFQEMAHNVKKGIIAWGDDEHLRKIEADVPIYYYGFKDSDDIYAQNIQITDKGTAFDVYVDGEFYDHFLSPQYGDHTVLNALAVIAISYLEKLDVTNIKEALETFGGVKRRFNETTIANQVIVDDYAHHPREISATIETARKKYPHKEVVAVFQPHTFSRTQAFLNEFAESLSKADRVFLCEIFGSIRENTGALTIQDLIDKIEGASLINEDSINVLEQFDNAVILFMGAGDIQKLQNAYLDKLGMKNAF
Experimental: S. aureus and E. coli Uridine-diphosphate-N-acetvimuramoyl: L-alanine lipase, MurC
Preparation of Enzyme Solution:
A 1 mg/mL stock solution of MurC is prepared in a buffer consisting of 20 mM Tris/HCl (pH 8.5) with 2.5 μM BME. The stock solution is further diluted with the buffer to give a final enzyme concentration of 100 μg/mL for the E. coli stock solution and 70 μg/mL for the S. aureus stock solution.
Preparation of Test Compound Solutions:
All test solutions are prepared in DMSO as 10 mg/mL, then diluted with 50 mM Tris/HCl (pH 8.5) to 100 μg/mL.
Preparation of Stop Solution:
The stop solution is prepared by stirring 1 part 4.2% ammonium molydbate in 4N HCl with 2 parts 0.045% malachite green for 30 min.
In this evaluation, the inhibitory activity of a test compound against MurC, the enzyme which catalyzes the third step of bacterial cell wall bioxynthesis is determined. Experiments are performed by adding 2.5 μl buffer, 2.5 μl 0.5M NH4SO2, 5 μl 2 μM L-Ala, 5 μl enzyme solution and 6.5 μl test compound solution to each well in a 96-well microplate. After a pre-incubation period of 10 mins. at 23° C., 3.75 μl of a 0.75 μM solution of UDP-MurNac is added to each well. Following an incubation period of 10 mins. at 37° C., 210 μl stop solution and 50 μl of a 34% w/v sodium citrate solution are added and color is allowed to develop for 10 mins. at 23° C. (Lanzetta et al., Analytical Biochemistry, 1979, 95) Optical density readings are taken at 660 nm using a Molecular Devices Spectra Max 250 with Soft Max software. Controls are performed using the same procedure and omitting the addition of UDP-MurNac. […]
Using these values the IC50 is determined by linear regression analysis.

staphylococci = test: Minimum inhibitory concentration, microdilution broth method, staphylococci; format: cell-based; conditions: Mueller-Hinton broth, 18-22 hours at 35° C.; for MIC: Staphylococcus aureus
In short: as §1

[3] = S. aureus GC 1131, read-out: MIC S. aureus GC 1131
[4] = S. aureus GC 4543, read-out: MIC S. aureus GC 4543

| Structure (SMILES) | IC50 [1] | MIC (Streptococci) | IC50 [2] | MIC (staphylococci; [3]) | MIC (staphylococci; [4]) | MurD IC50 [1] | MIC S. pneumo GC 1894 (Streptococci) | MurC IC50 [2] | MIC S. aureus GC 1131 (staphylococci; S. aureus GC 1131) | MIC S. aureus GC 4543 (staphylococci; S. aureus GC 4543) |
| --- | --- | --- | --- | --- | --- | --- | --- | --- | --- | --- |
| COc1cc(/C=C2\OC(=O)C(c3cc(Cl)cc(Cl)c3)=C2O)ccc1-c1ccccc1Cl [Example 21] | 16.9 µM | 0.5 µg/mL (≈ 1.06 µM) | 42.2 µM | 1 µg/mL (≈ 2.11 µM) | 0.5 µg/mL (≈ 1.06 µM) |  |  |  |  |  |
| COc1cc(/C=C2\OC(=O)C(c3cccc(Cl)c3)=C2O)ccc1-c1ccccc1C [Example 22] | 40.6 µM | 1 µg/mL (≈ 2.39 µM) | 28.6 µM | 4 µg/mL (≈ 9.55 µM) | 4 µg/mL (≈ 9.55 µM) |  |  |  |  |  |
| COc1ccccc1-c1ccc(/C=C2\OC(=O)C(c3cccc(Cl)c3)=C2O)cc1C [Example 23] | 23.9 µM | 1 µg/mL (≈ 2.39 µM) | 28.6 µM | 8 µg/mL (≈ 19.1 µM) | 4 µg/mL (≈ 9.55 µM) |  |  |  |  |  |
| COc1ccccc1-c1ccc(/C=C2\OC(=O)C(c3cc(Cl)cc(Cl)c3)=C2O)cc1C [Example 24] | 24.3 µM | 0.5 µg/mL (≈ 1.1 µM) | 26.5 µM | 2 µg/mL (≈ 4.41 µM) | 1 µg/mL (≈ 2.21 µM) |  |  |  |  |  |
| COc1cc(/C=C2\OC(=O)C(c3cc(Cl)cc(Cl)c3)=C2O)ccc1-c1ccccc1C [Example 25] | 30.9 µM | 0.25 µg/mL (≈ 0.551 µM) | 26.5 µM | 1 µg/mL (≈ 2.21 µM) | 0.5 µg/mL (≈ 1.1 µM) |  |  |  |  |  |
| Cc1cc(/C=C2\OC(=O)C(c3cccc(Cl)c3)=C2O)ccc1-c1ccccc1C(F)(F)F [Example 26] | 19.7 µM | < 0.125 µg/mL | 13.1 µM | 2 µg/mL (≈ 4.38 µM) | 1 µg/mL (≈ 2.19 µM) |  |  |  |  |  |
| Cc1cc(/C=C2\OC(=O)C(c3cc(Cl)cc(Cl)c3)=C2O)ccc1-c1ccccc1C(F)(F)F [Example 27] | 48.9 µM | 0.5 µg/mL (≈ 1.02 µM) | > 50.9 µM | 0.5 µg/mL (≈ 1.02 µM) | 0.5 µg/mL (≈ 1.02 µM) |  |  |  |  |  |
| Cc1ccccc1-c1ccc(/C=C2\OC(=O)C(c3cccc(Cl)c3)=C2O)cc1C [Example 28] | > 62.1 µM | < 0.125 µg/mL | > 62.1 µM | 1 µg/mL (≈ 2.48 µM) | 0.5 µg/mL (≈ 1.24 µM) |  |  |  |  |  |
| Cc1ccccc1-c1ccc(/C=C2\OC(=O)C(c3cc(Cl)cc(Cl)c3)=C2O)cc1C [Example 29] | 38.9 µM | < 0.125 µg/mL | 54.9 µM | 0.5 µg/mL (≈ 1.14 µM) | 0.5 µg/mL (≈ 1.14 µM) |  |  |  |  |  |
| Cc1cc(/C=C2\OC(=O)C(c3cccc(Cl)c3)=C2O)ccc1-c1ccccc1Cl [Example 30] | > 59.1 µM | 0.25 µg/mL (≈ 0.591 µM) | > 59.1 µM | 2 µg/mL (≈ 4.72 µM) | 1 µg/mL (≈ 2.36 µM) |  |  |  |  |  |
| Cc1cc(C=C2OC(=O)C(c3cc(Cl)cc(Cl)c3)=C2O)ccc1-c1ccccc1Cl [Example 31] |  |  |  |  |  | 10 (S) μg/mL | 0.25 µg/mL (≈ 0.546 µM) | >25 (S) μg/mL | 0.5 µg/mL (≈ 1.09 µM) | 0.25 µg/mL (≈ 0.546 µM) |
| COc1cc(/C=C2\OC(=O)C(c3cccc(Cl)c3)=C2O)ccc1-c1ccccc1C(F)(F)F [Example 32] | 19 µM | 0.5 µg/mL (≈ 1.06 µM) | 25.4 µM | 2 µg/mL (≈ 4.23 µM) | 2 µg/mL (≈ 4.23 µM) |  |  |  |  |  |
| O=C1O/C(=C\c2cccc3ccccc23)C(O)=C1c1cccc2ccccc12 [Example 47] | > 68.6 µM | 16 µg/mL (≈ 43.9 µM) |  | 16 µg/mL (≈ 43.9 µM) | 32 µg/mL (≈ 87.8 µM) |  |  |  |  |  |
| O=C1O/C(=C\c2ccc(-c3ccc(Cl)cc3)cc2)C(O)=C1c1ccc(Cl)cc1 [R=H, R1=4-Cl—C6H4, R2=4-(4′-Cl-biphenyl)] | 19.5 µM | < 0.125 µg/mL |  | 16 µg/mL (≈ 39.1 µM) | 8 µg/mL (≈ 19.5 µM) |  |  |  |  |  |
